What all share (assay type): cell-based, influenza virus
For experiment [1], the system named is rgA/Victoria/3/75 (H3N2-WT).
Experiment [2] concerns rgA/Giessen/6/09 (H1N1-WT).
Experiment [3] has as its system wild type (wt) strain of A/Mississippi/3/2001 (H1N1).

`O=C(O)c1ccc(F)c(F)c1Nc1ccc(I)cc1Cl` [ATR002, 2-(2-chloro-4-iodophenylamino)-N-3,4-difluoro benzoic acid]: in experiment [1], the antiviral activity entry is recorded as “revealed its potency against both variants”. Also, the “activity lower (than BLXM)” value in experiment [2] is on record as 13%.

With `COC(=O)OCOc1c2n(ccc1=O)N([C@@H]1c3ccccc3SCc3c1ccc(F)c3F)[C@@H]1COCCN1C2=O` [BLXM], the “reduction of the viral titer” value in experiment [2] was “approximate complete reduction of the viral titer”.

Regarding `O=C(NOCC1CC1)c1ccc(F)c(F)c1Nc1ccc(I)cc1Cl` [CI-1040], the antiviral effectiveness result in experiment [3] is reported as “very effective”. Consider `CCOC(=O)C1=C[C@@H](OC(CC)CC)[C@H](NC(C)=O)[C@@H](N)C1` [oseltamivir], for which the antiviral effectiveness entry in experiment [3] is listed as “very effective”.

(Values after patent US20220370384A1, “COMBINATIONS OF MEK INHIBITORS WITH CAP-DEPENDENT ENDONUCLEASE INHIBITORS” (priority 2019, published 2022).)
